From ChEMBL document CHEMBL1138805, “NO-sartans: a new class of pharmacodynamic hybrids as cardiovascular drugs” (J Med Chem, 2004)

Columns and labels:
Type in all cases: functional
[1] = Nitric oxide releasing effect was determined
[2] = Vasorelaxing activity was determined
[3] = target: T1, Type-1 angiotensin II receptor (Homo sapiens) (UniProt P30556); assay: Antagonistic activity against Angiotensin II receptor type 1 in presence of eserin
T1 sequence (whole entry): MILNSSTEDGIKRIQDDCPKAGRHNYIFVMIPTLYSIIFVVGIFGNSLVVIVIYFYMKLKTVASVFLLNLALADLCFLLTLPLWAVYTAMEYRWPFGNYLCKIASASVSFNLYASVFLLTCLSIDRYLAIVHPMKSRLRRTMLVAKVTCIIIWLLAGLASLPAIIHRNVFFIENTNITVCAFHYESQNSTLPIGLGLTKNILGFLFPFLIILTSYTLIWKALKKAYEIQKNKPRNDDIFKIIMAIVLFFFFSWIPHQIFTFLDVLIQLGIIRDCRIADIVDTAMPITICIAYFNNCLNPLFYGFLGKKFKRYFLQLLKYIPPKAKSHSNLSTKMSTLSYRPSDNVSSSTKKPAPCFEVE

[4] = target: T1, Type-1 angiotensin II receptor (Homo sapiens); assay: Antagonistic activity against Angiotensin II receptor type 1
[5] = Vasorelaxing activity in the presence of eserin was determined

Compound CCCCc1nc(Cl)c(COC(=O)c2cccc(CO[N+](=O)[O-])c2)n1Cc1ccc(-c2ccccc2-c2nn[nH]n2)cc1 has an Efficacy [1] of 34, an Efficacy [2] of 92% and a Kb [3] of 40 nM. It also gave a Kb [4] of 6 nM and an Efficacy [5] of 91.
Compound CCCCc1nc(Cl)c(COC(=O)CCCCO[N+](=O)[O-])n1Cc1ccc(-c2ccccc2-c2nn[nH]n2)cc1 has an Efficacy [1] of 23, an Efficacy [2] of 95% and a Kb [4] of 16 nM.
For O=C(O)c1cccc(CO[N+](=O)[O-])c1, the Efficacy [2] was 67% and the Efficacy [5] was 71.
